Measurements reported in patent US20070021419A1, “2-Aminophenyl-4-phenylpyrimidines as kinase inhibitors” (Cyclacel Limited, priority 2003, published 2007).

How the values were obtained:
CDK9/cyclin T1 = CDK9/cyclin T1 (Homo sapiens, UniProt P50750); assay: Kinase assay, radioactive phosphate incorporation, CDK9/cyclin T1; assay type: biochemical; settings: 100 μM ATP, 30° C.; read-out: Kinase inhibition IC50 CDK9/cyclin T1
Procedure, shortened: (§1)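 Steps: enzyme (2-4 μg) plus substrate in pH 7.4 buffer with DTT and vanadate; start with 100 μM ATP/15 mM MgCl2 containing [γ-32P]-ATP; incubate at 30° C; stop on ice; filter, wash with 75 mM orthophosphoric acid; scintillation count. Compounds diluted from DMSO stocks into 10% DMSO buffer.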

Aurora-A = biological target: T1, Aurora-A (Homo sapiens, UniProt O14965); assay: Kinase assay, radioactive phosphate incorporation, Aurora-A; assay type: biochemical; settings: 100 μM ATP, 30° C.; read-out: Kinase inhibition IC50 Aurora-A
T1 sequence (O14965 1-403): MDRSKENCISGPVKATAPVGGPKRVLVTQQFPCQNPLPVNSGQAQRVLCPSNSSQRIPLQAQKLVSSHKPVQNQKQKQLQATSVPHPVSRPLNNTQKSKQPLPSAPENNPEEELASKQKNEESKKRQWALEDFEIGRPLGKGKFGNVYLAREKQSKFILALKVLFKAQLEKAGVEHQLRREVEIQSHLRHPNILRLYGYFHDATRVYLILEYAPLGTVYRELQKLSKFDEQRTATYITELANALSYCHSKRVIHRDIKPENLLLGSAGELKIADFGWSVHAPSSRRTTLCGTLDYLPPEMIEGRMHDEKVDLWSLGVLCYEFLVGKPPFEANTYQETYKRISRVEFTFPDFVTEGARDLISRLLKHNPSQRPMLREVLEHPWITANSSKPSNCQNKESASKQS
Description: (§2) The compounds from the examples above were investigated for their ability to inhibit the enzymatic activity of various protein kinases. This was achieved by measurement of incorporation of radioactive phosphate from ATP into appropriate polypeptide substrates. Recombinant protein kinases and kinase complexes were produced or obtained commercially. Assays were performed using 96-well plates and appropriate assay buffers (typically 25 mM β-glycerophosphate, 20 mM MOPS, 5 MM EGTA, 1 mM DTT, 1 mM Na3VO3, pH 7.4), into which were added 2-4 μg of active enzyme with appropriate substrates. The reactions were initiated by addition of Mg/ATP mix (15 mM MgCl2+100 μM ATP with 30-50 kBq per well of [γ-^32P]-ATP) and mixtures incubated as required at 30° C. Reactions were stopped on ice, followed by filtration through p81 filterplates or GF/C filterplates (Whatman Polyfiltronics, Kent, UK). After washing 3 times with 75 mM aq orthophosphoric acid, plates were dried, scintillant added and incorporated radioactivity measured in a scintillation counter (TopCount, Packard Instruments, Pangbourne, Berks, UK). Compounds for kinase assay were made up as 10 mM stocks in DMSO and diluted into 10% DMSO in assay buffer.

GSK3β = GSK3β (Homo sapiens, UniProt P49841); assay: Kinase assay, radioactive phosphate incorporation, GSK3β; assay type: biochemical; settings: 100 μM ATP, 30° C.; read-out: Kinase inhibition IC50 GSK3β
Procedure, shortened: as §1

CDK7/cyclin H = CDK7/cyclin H (Homo sapiens, UniProt P50613); assay: Kinase assay, radioactive phosphate incorporation, CDK7/cyclin H; assay type: biochemical; settings: 100 μM ATP, 30° C.; read-out: Kinase inhibition IC50 CDK7/cyclin H
Procedure, shortened: as §1

CDK2/cyclin A = CDK2/cyclin A (Homo sapiens, UniProt P24941); assay: Kinase assay, radioactive phosphate incorporation, CDK2/cyclin A; assay type: biochemical; settings: 100 μM ATP, 30° C.; read-out: Kinase inhibition IC50 CDK2/cyclin A
Description: as §2

CDK2/cyclin E = CDK2/cyclin E (Homo sapiens, UniProt P24941); assay: Kinase assay, radioactive phosphate incorporation, CDK2/cyclin E; assay type: biochemical; settings: 100 μM ATP, 30° C.; read-out: Kinase inhibition IC50 CDK2/cyclin E
Procedure, shortened: as §1

A549 = assay: 72-h MTT cytotoxicity assay, A549; assay type: cell-based; settings: Homo sapiens, read-out: 72-h MTT IC50 A549, A549 cell line
Procedure, shortened: (§3)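 Seeding by doubling time, overnight 37° C; compounds, 1/3 serial dilution, triplicate, 72 h at 37° C; PBS wash; MTT (5 mg/mL stock) 4 h dark, 37° C; DMSO solubilisation.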

HT29 = assay: 72-h MTT cytotoxicity assay, HT29; assay type: cell-based; settings: Homo sapiens, HT-29, read-out: 72-h MTT IC50 HT29, HT29 cell line
Procedure, shortened: as §3

Saos-2 = assay: 72-h MTT cytotoxicity assay, Saos-2; assay type: cell-based; settings: Homo sapiens, read-out: 72-h MTT IC50 Saos-2, Saos-2 cell line
Procedure, shortened: as §3

[1] = system: transformed human cell lines (A549, HT29, Saos-2); assay: 72-h MTT cytotoxicity assay, average of cell lines; assay type: cell-based; settings: read-out: 72-h MTT IC50 Average, average of A549, HT29, Saos-2
Procedure, shortened: as §3

CDK1/cyclin B = CDK1/cyclin B (Homo sapiens, UniProt P06493); assay: Kinase assay, radioactive phosphate incorporation, CDK1/cyclin B; assay type: biochemical; settings: 100 μM ATP, 30° C.; read-out: Kinase inhibition IC50 CDK1/cyclin B
Description: as §2

CDK4/cyclin D1 = CDK4/cyclin D1 (Homo sapiens, UniProt P11802); assay: Kinase assay, radioactive phosphate incorporation, CDK4/cyclin D1; assay type: biochemical; settings: 100 μM ATP, 30° C.; read-out: Kinase inhibition IC50 CDK4/cyclin D1
Description: as §2

Sequence of CDK7/cyclin H (P50613 whole entry, species assumed): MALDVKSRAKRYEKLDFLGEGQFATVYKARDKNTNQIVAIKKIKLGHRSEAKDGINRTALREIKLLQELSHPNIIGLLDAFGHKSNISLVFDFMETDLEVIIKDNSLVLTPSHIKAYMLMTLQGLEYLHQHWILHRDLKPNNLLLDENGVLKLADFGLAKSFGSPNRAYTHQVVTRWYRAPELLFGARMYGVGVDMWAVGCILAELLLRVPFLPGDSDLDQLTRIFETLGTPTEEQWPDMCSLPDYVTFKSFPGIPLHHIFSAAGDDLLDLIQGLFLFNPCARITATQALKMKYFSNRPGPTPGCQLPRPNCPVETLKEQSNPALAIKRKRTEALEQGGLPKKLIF
Sequence of CDK7/cyclin H (P51946 whole entry partner, species assumed): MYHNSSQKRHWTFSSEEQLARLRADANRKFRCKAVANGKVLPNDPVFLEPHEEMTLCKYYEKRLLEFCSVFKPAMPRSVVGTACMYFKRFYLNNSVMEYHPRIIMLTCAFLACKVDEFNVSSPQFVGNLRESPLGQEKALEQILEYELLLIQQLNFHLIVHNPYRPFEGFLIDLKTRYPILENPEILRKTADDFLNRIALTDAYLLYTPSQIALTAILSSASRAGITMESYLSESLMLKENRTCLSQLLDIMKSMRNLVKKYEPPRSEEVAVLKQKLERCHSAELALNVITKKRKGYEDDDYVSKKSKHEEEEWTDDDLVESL
Sequence of CDK4/cyclin D1 (P11802 whole entry, species assumed): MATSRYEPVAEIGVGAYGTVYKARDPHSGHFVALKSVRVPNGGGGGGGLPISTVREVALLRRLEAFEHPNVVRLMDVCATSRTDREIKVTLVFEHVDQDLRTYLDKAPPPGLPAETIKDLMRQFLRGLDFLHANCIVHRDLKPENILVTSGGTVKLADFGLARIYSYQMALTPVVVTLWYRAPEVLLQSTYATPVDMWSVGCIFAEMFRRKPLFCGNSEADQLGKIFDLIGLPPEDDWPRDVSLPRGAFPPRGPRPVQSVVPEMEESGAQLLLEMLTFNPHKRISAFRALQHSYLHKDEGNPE
Sequence of CDK4/cyclin D1 (P24385 whole entry partner, species assumed): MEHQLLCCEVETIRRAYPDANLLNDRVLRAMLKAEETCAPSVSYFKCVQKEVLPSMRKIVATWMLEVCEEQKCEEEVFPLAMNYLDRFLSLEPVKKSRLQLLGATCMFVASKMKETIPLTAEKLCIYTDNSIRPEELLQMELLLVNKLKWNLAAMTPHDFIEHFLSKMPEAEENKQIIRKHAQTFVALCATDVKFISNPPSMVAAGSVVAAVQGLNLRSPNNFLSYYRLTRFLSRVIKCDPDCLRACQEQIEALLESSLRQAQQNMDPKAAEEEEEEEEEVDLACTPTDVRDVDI
Sequence of CDK1/cyclin B (P06493 whole entry, species assumed): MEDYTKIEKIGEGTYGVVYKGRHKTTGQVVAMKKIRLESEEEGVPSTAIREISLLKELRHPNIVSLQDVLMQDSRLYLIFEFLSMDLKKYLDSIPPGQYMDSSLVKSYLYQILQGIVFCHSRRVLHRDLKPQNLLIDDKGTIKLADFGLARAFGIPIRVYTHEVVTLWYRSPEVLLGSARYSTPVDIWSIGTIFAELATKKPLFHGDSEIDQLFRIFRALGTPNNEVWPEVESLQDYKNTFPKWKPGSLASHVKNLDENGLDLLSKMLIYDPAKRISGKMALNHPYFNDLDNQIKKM
Sequence of CDK1/cyclin B (P14635 whole entry partner, species assumed): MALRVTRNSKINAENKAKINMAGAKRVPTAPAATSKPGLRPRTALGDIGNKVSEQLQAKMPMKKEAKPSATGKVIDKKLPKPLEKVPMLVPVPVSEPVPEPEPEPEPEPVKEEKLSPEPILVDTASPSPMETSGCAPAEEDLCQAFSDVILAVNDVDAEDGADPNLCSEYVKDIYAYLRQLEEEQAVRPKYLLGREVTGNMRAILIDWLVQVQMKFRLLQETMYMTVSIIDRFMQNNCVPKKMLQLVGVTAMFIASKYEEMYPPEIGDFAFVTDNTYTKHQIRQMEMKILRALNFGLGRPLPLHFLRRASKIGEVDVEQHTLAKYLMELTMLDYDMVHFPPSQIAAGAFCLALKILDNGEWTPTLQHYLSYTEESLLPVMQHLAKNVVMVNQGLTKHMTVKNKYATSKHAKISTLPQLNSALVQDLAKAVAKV
Sequence of GSK3β (P49841 whole entry, species assumed): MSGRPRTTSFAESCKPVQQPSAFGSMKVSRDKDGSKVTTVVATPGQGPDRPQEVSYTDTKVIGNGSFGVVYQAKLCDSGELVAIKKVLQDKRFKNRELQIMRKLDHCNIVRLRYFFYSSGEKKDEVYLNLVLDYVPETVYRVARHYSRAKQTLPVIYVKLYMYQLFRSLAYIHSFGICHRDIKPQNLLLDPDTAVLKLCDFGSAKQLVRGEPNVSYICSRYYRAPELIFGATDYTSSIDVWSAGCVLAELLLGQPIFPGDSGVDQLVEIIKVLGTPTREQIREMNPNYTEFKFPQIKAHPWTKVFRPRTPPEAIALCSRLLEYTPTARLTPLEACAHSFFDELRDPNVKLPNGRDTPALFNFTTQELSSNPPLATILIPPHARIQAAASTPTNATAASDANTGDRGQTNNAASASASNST
Sequence of CDK9/cyclin T1 (P50750 whole entry, species assumed): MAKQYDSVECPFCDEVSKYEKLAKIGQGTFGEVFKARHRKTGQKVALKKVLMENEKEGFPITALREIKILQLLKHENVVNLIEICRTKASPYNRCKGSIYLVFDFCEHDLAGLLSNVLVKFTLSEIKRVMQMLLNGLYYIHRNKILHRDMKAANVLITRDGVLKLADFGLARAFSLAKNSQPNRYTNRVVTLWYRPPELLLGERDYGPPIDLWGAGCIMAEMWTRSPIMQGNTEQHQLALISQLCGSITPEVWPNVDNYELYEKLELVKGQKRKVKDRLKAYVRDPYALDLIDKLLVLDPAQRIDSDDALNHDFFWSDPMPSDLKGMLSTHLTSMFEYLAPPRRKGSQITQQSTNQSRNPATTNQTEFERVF
Sequence of CDK9/cyclin T1 (O60563 whole entry partner, species assumed): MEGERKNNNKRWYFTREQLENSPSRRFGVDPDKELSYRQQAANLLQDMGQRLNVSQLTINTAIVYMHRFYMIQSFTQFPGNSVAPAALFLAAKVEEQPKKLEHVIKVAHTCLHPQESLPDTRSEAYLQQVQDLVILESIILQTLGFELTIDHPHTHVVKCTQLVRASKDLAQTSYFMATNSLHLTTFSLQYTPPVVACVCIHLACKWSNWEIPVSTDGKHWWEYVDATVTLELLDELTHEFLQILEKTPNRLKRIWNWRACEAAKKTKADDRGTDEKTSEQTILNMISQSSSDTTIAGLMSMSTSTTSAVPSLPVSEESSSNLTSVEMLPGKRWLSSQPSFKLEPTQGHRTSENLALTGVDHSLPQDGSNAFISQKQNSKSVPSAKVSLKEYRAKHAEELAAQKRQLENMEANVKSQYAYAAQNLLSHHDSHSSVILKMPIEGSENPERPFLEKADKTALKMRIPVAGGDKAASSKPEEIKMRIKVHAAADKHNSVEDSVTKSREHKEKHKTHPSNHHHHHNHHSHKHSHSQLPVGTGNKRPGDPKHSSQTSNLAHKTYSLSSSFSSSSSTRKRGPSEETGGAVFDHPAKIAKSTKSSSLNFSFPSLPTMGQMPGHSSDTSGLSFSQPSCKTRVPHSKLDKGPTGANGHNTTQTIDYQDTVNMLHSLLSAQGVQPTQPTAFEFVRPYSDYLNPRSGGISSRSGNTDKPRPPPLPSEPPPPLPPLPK

| SMILES | IC50 (CDK9/cyclin T1) [nM] | IC50 (Aurora-A) [nM] | IC50 (GSK3β) [nM] | IC50 (CDK7/cyclin H) [nM] | IC50 (CDK2/cyclin A) [nM] | IC50 (CDK2/cyclin E) [nM] | IC50 (A549) [nM] | IC50 (HT29) [nM] | IC50 (Saos-2) [nM] | IC50 [1] [nM] | IC50 (CDK1/cyclin B) [nM] | IC50 (CDK4/cyclin D1) [nM] |
| --- | --- | --- | --- | --- | --- | --- | --- | --- | --- | --- | --- | --- |
| Oc1ccc(Nc2nccc(-c3cccc(C(F)(F)F)c3)n2)cc1 [Compound 96, 4-[4-(3-trifluoromethyl-phenyl)-pyrimidin-2-ylamino]-phenol] | 80 | 20 |  |  |  |  |  |  |  |  |  |  |
| O=[N+]([O-])c1cccc(Nc2nccc(-c3ccc(CCn4cncn4)cc3)n2)c1 [Compound 126, (3-Nitro-phenyl)-{4-[4-(2-[1,2,4]triazol-1-yl-ethyl)-phenyl]-pyrimidin-2-yl}-amine] | 90 | 340 | 10 |  |  |  |  |  |  |  |  |  |
| Oc1ccc(Nc2nccc(-c3cccc(F)c3)n2)cc1 [Compound 113, 4-[4-(3-Fluoro-phenyl)-pyrimidin-2-ylamino]-phenol] | 150 | 140 |  |  |  |  |  |  |  |  |  |  |
| COc1ccc(Nc2nccc(-c3cccc(CO)c3)n2)cn1 [Compound 125, {3-[2-(6-Methoxy-pyridin-3-ylamino)-pyrimidin-4-yl]-phenyl}-methanol] | 120 | 960 | 40 | 5900 |  |  |  |  |  |  |  |  |
| CCOc1ccc(-c2ccnc(Nc3cccc(O)c3)n2)cc1 [Compound 109, 3-[4-(4-Ethoxy-phenyl)-pyrimidin-2-ylamino]-phenol] | 140 | 700 |  |  | 2000 |  |  |  |  |  |  |  |
| COc1ccc(-c2ccnc(Nc3ccc(N4CCOCC4)cc3)n2)cc1 [Compound 111, [4-(4-Methoxy-phenyl)-pyrimidin-2-yl]-(4-morpholin-4-yl-phenyl)-amine] |  | 520 |  |  |  |  |  |  |  |  |  |  |
| Oc1cccc(Nc2nccc(-c3cccc(C(F)(F)F)c3)n2)c1 [Compound 95, 3-[4-(3-trifluoromethyl-phenyl)-pyrimidin-2-ylamino]-phenol] | 90 | 990 |  |  |  |  |  |  |  |  |  |  |
| OCc1cccc(-c2ccnc(Nc3cccc(O)c3)n2)c1 [Compound 115, 3-[4-(3-Hydroxymethyl-phenyl)-pyrimidin-2-ylamino]-phenol] | 40 | 720 | 70 | 3100 | 2000 |  |  |  |  |  |  |  |
| O=[N+]([O-])c1cccc(Nc2nccc(-c3cccc(CN4CCCC4CNc4ccccc4)c3)n2)c1 (stereo not shown) [Compound 86, (3-Nitro-phenyl)-{4-[3-(2-phenylaminomethyl-pyrrolidin-1-ylmethyl)-phenyl]-pyrimidin-2-yl}-amine] | 130 | 2400 | 160 | 670 |  | 810 | 49300 | 8900 | 55800 | 38000 ± 25400 |  |  |
| O=[N+]([O-])c1cccc(Nc2nccc(-c3cccc(Cl)c3)n2)c1 [Compound 112, [4-(3-Chloro-phenyl)-pyrimidin-2-yl]-(3-nitro-phenyl)-amine] | 70 | 2600 | 160 |  |  |  |  |  |  |  |  |  |
| CN1CCN(Cc2cccc(-c3ccnc(Nc4cccc([N+](=O)[O-])c4)n3)c2)CC1 [Compound 54, {4-[3-(4-Methyl-piperazin-1-ylmethyl)-phenyl]-pyrimidin-2-yl}-(3-nitro-phenyl)-amine] | 22 |  | 320 | 130 | 820 | 300 | 1100 | 770 | 1300 | 1100 ± 300 | 2000 | 4500 |
| COc1cccc(-c2ccnc(Nc3cccc(F)c3)n2)c1 [Compound 118, (3-Fluoro-phenyl)-[4-(3-methoxy-phenyl)-pyrimidin-2-yl]-amine] | 20 | 1800 |  |  |  |  |  |  |  |  |  |  |
| OCc1cccc(-c2ccnc(Nc3cccc(F)c3)n2)c1 [Compound 116, {3-[2-(3-Fluoro-phenylamino)-pyrimidin-4-yl]-phenyl}-methanol] | 50 | 630 |  |  |  |  |  |  |  |  |  |  |
| CCN(C(C)=O)c1cccc(-c2ccnc(Nc3ccc(OC)cc3)n2)c1 [Compound 23, N-Ethyl-N-{3-[2-(4-methoxy-phenylamino)-pyrimidin-4-yl]-phenyl}-acetamide] | 400 |  | 120 | 4300 | 1200 | 1100 | 12900 | 3400 | 23000 | 13100 ± 9800 | 3600 | 7600 |
| O=[N+]([O-])c1cccc(Nc2nccc(-c3cccc(CN4CCCCC4CO)c3)n2)c1 (stereo not shown) [Compound 79, (1-{3-[2-(3-Nitro-phenylamino)-pyrimidin-4-yl]-benzyl}-piperidin-2-yl)-methanol] | 10 |  | 20 | 50 | 150 | < 1 | 330 | 200 | 620 | 400 ± 200 | 150 | 540 |
| Oc1ccc(Nc2nccc(-c3cccc(O)c3)n2)cc1 [Compound 122, 3-[2-(4-Hydroxy-phenylamino)-pyrimidin-4-yl]-phenol] | 190 | 6 |  |  |  |  |  |  |  |  |  |  |
| O=[N+]([O-])c1cccc(Nc2nccc(-c3cccc(Cn4ccnc4)c3)n2)c1 [Compound 29, [4-(3-Imidazol-1-ylmethyl-phenyl)-pyrimidin-2-yl]-(3-nitro-phenyl)-amine] | 44 |  | 50 | 71 | 5100 | 140 | 3600 | 1800 | 4500 | 3300 ± 1400 | 2200 | 62000 |
| O=[N+]([O-])c1cccc(Nc2nccc(-c3ccc(CN4CCCCC4CO)cc3)n2)c1 (stereo not shown) [Compound 127, (1-{4-[2-(3-Nitro-phenylamino)-pyrimidin-4-yl]-benzyl}-piperidin-2-yl)-methanol] | 900 | 1100 |  |  |  |  |  |  |  |  |  |  |
| Oc1cccc(Nc2nccc(-c3cc(F)ccc3F)n2)c1 [Compound 114, 3-[4-(2,5-Difluoro-phenyl)-pyrimidin-2-ylamino]-phenol] | 120 | 160 |  |  |  |  |  |  |  |  |  |  |
| CS(=O)(=O)c1cccc(Nc2nccc(-c3cccc(Cn4cncn4)c3)n2)c1 [Compound 104, (3-Methanesulfonyl-phenyl)-[4-(3-[1,2,4]triazol-1-ylmethyl-phenyl)-pyrimidin-2-yl]-amine] | 60 | 1500 | 280 | 6400 |  |  |  |  |  |  |  |  |
| COc1ccc(Nc2nccc(-c3cccc(N(C)S(C)(=O)=O)c3)n2)cn1 [Compound 132, N-{3-[2-(6-Methoxy-pyridin-3-ylamino)-pyrimidin-4-yl]-phenyl}-N-methyl-methanesulfonamide] | 60 | 390 | 170 | 3900 |  |  |  |  |  |  |  | 2100 |
